In data set [1] the test system is P388. The experiment in a line: cells. The data set is classed as functional. Particulars: Mus musculus.
The subject of data set [2] is SN12K1. The experiment in a line: cells. The data set is classed as functional. To be noted: Homo sapiens.
The test system of data set [3] is P388/ADR. The experiment in a line: cells. It counts as functional. Particulars: Mus musculus.
The target in data set [4] is Dual specificity tyrosine-phosphorylation-regulated kinase 1A (Rattus norvegicus, UniProt Q63470). The data set is classed as biochemical, Homo sapiens.
In data set [5] the target is Cytochrome P450 2C9 (Homo sapiens, UniProt P11712).
The target of data set [6] is Cytochrome P450 2C19 (Homo sapiens, UniProt P33261). Nature of the data set: Cytochrome panel assay with activity outcomes. Panel member name: p450-cyp2c19 Compounds with AC50 equal or less than 10 uM are considered active. It counts as functional. Particulars: read-out: AC50.
Data set [7] addresses T1, Cytochrome P450 1A2 (Homo sapiens, UniProt P05177).
T1 sequence (P05177 whole entry): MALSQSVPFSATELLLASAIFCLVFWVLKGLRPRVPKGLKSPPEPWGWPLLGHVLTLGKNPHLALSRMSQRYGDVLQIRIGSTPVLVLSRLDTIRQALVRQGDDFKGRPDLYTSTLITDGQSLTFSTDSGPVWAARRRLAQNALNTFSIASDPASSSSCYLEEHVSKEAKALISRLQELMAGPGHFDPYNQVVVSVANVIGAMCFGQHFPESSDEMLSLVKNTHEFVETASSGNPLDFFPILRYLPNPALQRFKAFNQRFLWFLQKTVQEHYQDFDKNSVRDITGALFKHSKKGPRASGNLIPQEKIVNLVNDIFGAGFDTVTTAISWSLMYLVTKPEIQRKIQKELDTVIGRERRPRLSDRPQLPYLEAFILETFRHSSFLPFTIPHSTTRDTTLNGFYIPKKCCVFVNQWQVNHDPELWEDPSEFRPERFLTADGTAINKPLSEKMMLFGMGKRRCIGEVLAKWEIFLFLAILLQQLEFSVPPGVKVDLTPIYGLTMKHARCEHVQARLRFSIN

A short description of data set [8]: HEp-2 cell cytotoxicity, dose response, cytotoxicity control for RSV inhibitor project, HTS (AID 2410). The data set is classed as functional. To be noted: human respiratory syncytial virus.
The target in data set [9] is FAD-linked sulfhydryl oxidase ALR (Homo sapiens, UniProt P55789). The experiment in a line: inhibitors of human ALR sulfhydryl oxidase, dose response, biochemical, H2O2 detection, luminescence, cherry-pick (AID 493248).
Data set [10] deals with Cytochrome P450 3A4 (Homo sapiens, UniProt P08684).
The nature of data set [11]: cytotoxicity in HEK-293T cells, dose response, cytotoxicity control for TCR NF-kB inhibitor project, luminescence, T-cell screen hits (AID 489026).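 Note: cells exposed to compound about 14 hours before the viability readout.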 The data set is classed as functional, cell-based.
For data set [12], the target named is T2, Rac GTPase-activating protein 1 (Homo sapiens, UniProt Q9H0H5).
T2 sequence (Q9H0H5 whole entry): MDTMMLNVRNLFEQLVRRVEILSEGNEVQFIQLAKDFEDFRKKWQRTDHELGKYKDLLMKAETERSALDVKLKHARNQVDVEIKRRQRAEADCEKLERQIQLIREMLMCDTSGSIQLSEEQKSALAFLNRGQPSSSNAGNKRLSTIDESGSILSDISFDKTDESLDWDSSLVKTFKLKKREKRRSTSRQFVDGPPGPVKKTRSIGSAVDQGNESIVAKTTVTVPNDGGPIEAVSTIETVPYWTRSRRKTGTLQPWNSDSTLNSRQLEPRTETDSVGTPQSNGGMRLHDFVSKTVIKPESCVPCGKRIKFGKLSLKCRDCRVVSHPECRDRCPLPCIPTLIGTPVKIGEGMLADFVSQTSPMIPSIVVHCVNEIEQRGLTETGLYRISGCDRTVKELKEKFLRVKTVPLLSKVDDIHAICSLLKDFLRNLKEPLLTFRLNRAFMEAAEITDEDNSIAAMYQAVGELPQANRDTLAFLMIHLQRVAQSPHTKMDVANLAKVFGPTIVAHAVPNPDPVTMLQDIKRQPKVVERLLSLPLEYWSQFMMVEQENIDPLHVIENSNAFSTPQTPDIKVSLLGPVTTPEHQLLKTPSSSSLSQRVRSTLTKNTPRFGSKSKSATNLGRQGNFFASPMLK
Nature of the data set: MgcRacGAP GTPase-activating activity inhibitors, confirmation, biochemical, ADP Hunter fluorescence, primary and confirmatory (AID 624330). The data set is classed as functional.

Data set [13] deals with T3, Sentrin-specific protease 8 (Homo sapiens, UniProt Q96LD8).
T3 sequence (Q96LD8 whole entry): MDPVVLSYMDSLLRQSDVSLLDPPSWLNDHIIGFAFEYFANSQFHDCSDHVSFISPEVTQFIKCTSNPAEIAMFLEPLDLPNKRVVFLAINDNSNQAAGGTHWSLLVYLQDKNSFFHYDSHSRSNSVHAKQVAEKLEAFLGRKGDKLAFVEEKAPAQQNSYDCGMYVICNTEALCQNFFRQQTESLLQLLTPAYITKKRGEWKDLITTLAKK
It counts as functional.

Data set [14] addresses T3, Sentrin-specific protease 8. It counts as functional. This is another data set of the same source.
Data set [15] deals with BJ. Nature of the data set: cytotoxicity toward BJ-TERT-LT-ST fibroblasts, dose response, cell-based, RAS-independent, luminescence (AID 1935).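 Note: BJ fibroblasts immortalized with TERT plus LT and ST oncogenes.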 It counts as functional. To be noted: Homo sapiens.
Data set [16] is described as follows: cytotoxicity toward DRD oncogenic fibroblasts, dose response, cell-based, non-viral oncogenic, luminescence (AID 1934). The data set is classed as functional. To be noted: Homo sapiens.
Data set [17] has as its system BJ. Nature of the data set: cytotoxicity toward BJ-TERT fibroblasts, dose response, cell-based, RAS-independent, luminescence (AID 1933). The data set is classed as functional. Particulars: Homo sapiens.
For data set [18], the system named is BJ. Nature of the data set: cells. The data set is classed as functional, cell-based. Particulars: Homo sapiens.

Activity calls are given as the source filed them.

Sequence of Cytochrome P450 2C9 (P11712 whole entry): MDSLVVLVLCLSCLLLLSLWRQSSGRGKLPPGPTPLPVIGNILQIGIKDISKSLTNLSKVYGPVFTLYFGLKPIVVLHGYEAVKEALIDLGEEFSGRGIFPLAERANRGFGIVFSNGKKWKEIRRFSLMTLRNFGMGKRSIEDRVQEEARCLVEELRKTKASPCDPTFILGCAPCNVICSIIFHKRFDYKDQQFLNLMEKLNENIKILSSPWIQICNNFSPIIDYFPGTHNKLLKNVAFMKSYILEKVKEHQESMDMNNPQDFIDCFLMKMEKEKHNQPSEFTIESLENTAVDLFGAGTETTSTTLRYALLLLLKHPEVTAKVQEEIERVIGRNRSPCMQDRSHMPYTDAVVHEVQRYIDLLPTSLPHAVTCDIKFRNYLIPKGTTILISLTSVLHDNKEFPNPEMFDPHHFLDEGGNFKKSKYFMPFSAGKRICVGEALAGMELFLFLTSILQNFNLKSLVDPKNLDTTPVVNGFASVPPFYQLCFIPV
Sequence of Cytochrome P450 3A4 (P08684 whole entry): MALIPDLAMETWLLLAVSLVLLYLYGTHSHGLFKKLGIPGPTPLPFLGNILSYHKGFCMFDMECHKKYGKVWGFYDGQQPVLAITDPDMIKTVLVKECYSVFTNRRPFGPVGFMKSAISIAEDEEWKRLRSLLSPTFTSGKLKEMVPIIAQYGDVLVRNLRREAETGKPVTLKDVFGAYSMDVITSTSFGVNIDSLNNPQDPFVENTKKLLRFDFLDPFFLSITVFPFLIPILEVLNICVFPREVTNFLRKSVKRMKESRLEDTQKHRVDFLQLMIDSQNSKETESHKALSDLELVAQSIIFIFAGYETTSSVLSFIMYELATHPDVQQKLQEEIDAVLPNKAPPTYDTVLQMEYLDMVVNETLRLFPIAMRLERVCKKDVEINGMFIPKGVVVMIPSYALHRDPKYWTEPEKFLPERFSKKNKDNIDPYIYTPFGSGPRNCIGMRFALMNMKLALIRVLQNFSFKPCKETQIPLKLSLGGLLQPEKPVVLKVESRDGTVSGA
Sequence of Cytochrome P450 2C19 (P33261 whole entry): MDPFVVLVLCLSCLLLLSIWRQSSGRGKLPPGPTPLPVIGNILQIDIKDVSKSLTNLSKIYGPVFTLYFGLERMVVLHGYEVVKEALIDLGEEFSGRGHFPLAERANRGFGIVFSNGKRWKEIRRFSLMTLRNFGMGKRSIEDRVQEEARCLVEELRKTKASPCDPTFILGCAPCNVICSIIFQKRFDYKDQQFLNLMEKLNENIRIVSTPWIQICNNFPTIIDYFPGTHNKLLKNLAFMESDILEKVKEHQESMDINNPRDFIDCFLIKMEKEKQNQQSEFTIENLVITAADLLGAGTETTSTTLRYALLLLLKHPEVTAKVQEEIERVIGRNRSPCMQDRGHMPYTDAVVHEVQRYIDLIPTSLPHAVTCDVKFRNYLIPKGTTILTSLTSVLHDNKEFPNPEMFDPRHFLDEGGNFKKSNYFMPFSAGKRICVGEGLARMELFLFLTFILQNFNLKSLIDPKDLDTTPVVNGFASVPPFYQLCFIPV
Sequence of FAD-linked sulfhydryl oxidase ALR (P55789 whole entry): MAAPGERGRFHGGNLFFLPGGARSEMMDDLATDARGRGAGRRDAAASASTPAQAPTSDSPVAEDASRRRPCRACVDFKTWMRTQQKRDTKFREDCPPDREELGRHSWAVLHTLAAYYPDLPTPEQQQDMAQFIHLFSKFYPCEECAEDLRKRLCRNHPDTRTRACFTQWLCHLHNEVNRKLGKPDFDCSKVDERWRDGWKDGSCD

Turning to `CCCCC1=C(Br)C(=C(Br)Br)OC1=O`, the 50% growth inhibitory concentration (GI50) in [1] was 0.505 µM (active); in data set [2] it was 1.96 µM (inactive); in [3], 0.443 µM (active).

Consider `C#CCn1c(=O)c(C#N)c(O)c2cc3ccccc3nc21`, for which the GI50 in data set [1], in [2] and in [3] was > 100 µM (inactive) each time.

Regarding `COc1ccccc1/C=C1\CCC(CN(C)C)C1=O` (configuration not stated), the results for the concentration for 50% growth inhibition (GI50) in data set [1], in [2] and in data set [3] were 0.608 µM (active), 2.05 µM (inactive) and 0.568 µM (active), respectively.

For the compound `COc1ccc(-c2csc(N=C(N)N)n2)cc1`, in data set [4], the AC50 is 0.541 µM (active).

Consider `Cc1c2cc[n+](C)cc2c(C)c2c1[nH]c1ccc(O)cc12` [ELLIPTINIUM ACETATE], for which the GI50 in data set [1] is 0.131 µM (active); in [2], 2.98 µM (inactive); in [3], 1.92 µM (inactive).

Take `Brc1[nH]nc2ccccc12`: the AC50 result in data set [5] was “inconclusive”; in data set [6], 11.2 µM (inconclusive).

For `COc1ccc(NC(=O)/C(C#N)=C\c2ccc(-c3cccc(C(=O)O)c3C)o2)cc1`, in data set [4], the AC50 was 1.7 µM (active).

Take `Cc1[nH]n(-c2ccccc2)c(=O)c1CCOC(=O)c1cccc(C(F)(F)F)c1`: the AC50 in [7] was 22.4 µM (inconclusive); in [5], “inconclusive”.

As to `CCCCC(NC(=O)CC)C(=O)O` (configuration not stated), the GI50 in data set [1], in [2] and in data set [3] was > 100 µM (inactive) in each case.

With `O=S(=O)(O)c1cccc(N=Nc2c(O)ccc3ccccc23)c1`, the AC50 in data set [4] was 5.88 µM (active).

As to `Sc1nnc(-c2ccccn2)n1/N=C/c1ccc(-c2ccccc2Cl)o1`, in data set [8], the CC50 is > 50 µM (active). Moreover, the concentration at half-maximal activity (AC50) in data set [9] is 5.29 µM (active).

Consider `Cc1nc(NC(N)=Nc2ccccc2)nc2ccccc12`, for which the half-maximal activity concentration (AC50) in [10] is 39.8 µM (inconclusive); in data set [5], “inconclusive”; in data set [6], 39.8 µM (inconclusive).

For the compound `COC(=O)C1OC(Oc2cc(O)c3c(=O)cc(-c4ccc(O)cc4)oc3c2)C(O)C(O)C1O` (configuration not stated), the GI50 in [2] is > 100 µM (inactive); in data set [3], > 35.5 µM (inactive).

`C[C@H]1C/C=C/[C@H]2[C@@H]3O[C@]3(C)[C@@H](C)[C@H]3[C@H](Cc4ccccc4)NC(=O)[C@]32OC(=O)O/C=C/[C@@](C)(O)C1=O` [CYTOCHALASIN E]: the GI50 in data set [1] is 0.0166 µM (active); in data set [2], < 0.01 µM (active).

As for `COc1cccc2c1C(=O)c1c(O)c3c(c(O)c1C2=O)C[C@@](O)(C(C)=O)C[C@@H]3OC1CC(N(Cc2ccccc2)Cc2ccccc2)C(O)C(C)O1` (some centres not stated), the GI50 in data set [1] is 0.675 µM (active); in data set [2] it was 2.92 µM (inactive); in data set [3], 1.57 µM (inactive).

`O=C1NC(c2cccc3ccccc23)Nc2ccc(O)cc21` (configuration not stated): the GI50 in data set [1] was 19 µM (inactive); in [2], 36.7 µM (inactive); in [3] it was 24.8 µM (inactive).

As to `CCN(CC)S(=O)(=O)c1ccc2c3c(cccc13)C(=O)S2`, the AC50 was 17.8 µM (inconclusive) in data set [10] and “inconclusive” in data set [5].

Consider `Cc1ccc(/C=N/NC(=O)c2c(C)nc3ccc(Br)cn23)cc1`, for which the IC50 in data set [11] is > 80 µM (inactive).

`Cc1ccccc1NS(=O)(=O)c1ccc(N2CCCC2=O)cc1`: the IC50 in data set [11] is > 80 µM (inactive).

In the case of `Cc1nc2c(ccc3nsnc32)[nH]1`, the AC50 in data set [4] is 5.91 µM (active).

As to `COc1cc(C)c(Br)cc1S(=O)(=O)NCc1ccccc1`, the AC50 entry in [5] is reported as “inconclusive”.

For the compound `CN(C)c1ccc(C(=O)NC2(N3CCC3=O)CCCC2)cc1`, the half-maximal activity concentration (AC50) in data set [9] was 2.55 µM (active). For the same compound, the concentration for half-maximal inhibition (IC50) in data set [12] was 126 µM (active).

Take `COC(=O)c1ccc(C)cc1C1CN=NC12Cc1cc(C)ccc1C2=O` (configuration not stated): the values for the IC50 in data set [13] and in [14] were 20.9 µM (active) and 13.9 µM (active), respectively.

For the compound `COc1ccc(Cl)cc1NC(=O)CN(C)CC(=O)Nc1ccccc1N1CCOCC1`, the EC50 was 30.7 µM (active) in data set [15], 2.55 µM (active) in [16], 3.04 µM (active) in [17] and 37.1 µM (active) in [18]. Also, in data set [11], the IC50 was 70.8 µM (inactive).

Source of the values: ChEMBL document CHEMBL1201862, “PubChem BioAssay data set” (2004).
